Laboratory results reported in patent US10858347B2, “Multicyclic compounds and uses thereof” (Karyopharm Therapeutics Inc., priority 2015, dated 2020).

Assays:
MS751 cells = assay: MTT cell proliferation assay, MS751 cells; type: cell-based; conditions: MS751 cells (human cervix squamous cell carcinoma, lymph node metastasis); approximately 64-72 hours incubation
Experimental: (§1) The MTT cell proliferation assay was used to study the cytotoxic properties of the compounds. The assay was performed according to the method described by Roche Molecular Biochemicals, with minor modifications. The assay is based on the cleavage of the tetrazolium salt, MTT, in the presence of an electron-coupling reagent. The water-insoluble formazan salt produced must be solubilized in an additional step. Cells grown in a 96-well tissue culture plate were incubated with the MTT solution for approximately 4 hours. After this incubation period, a water-insoluble formazan dye formed. After solubilization, the formazan dye was quantitated using a scanning multi-well spectrophotometer (ELISA reader). […] The cells were seeded at 5,000-10,000 cells in each well of 96-well plate in 100 μL of fresh culture medium and were allowed to attach overnight. The stock solutions of the compounds were diluted in 100 μL cell culture medium to obtain eight concentrations of each test compound, ranging from 1 nM to 30 μM. […] All optical densities were measured at 490 nm using a Vmax Kinetic Microplate Reader (Molecular Devices). In most cases, the assay was performed in duplicate and the results were presented as a mean percent inhibition to the negative control±SE. The following formula was used to calculate the percent of inhibition: Inhibition (%)=(1−(ODo/OD))×100.
(§2) The compounds were tested against MS751, Z138 and 3T3 cells. The MS751 cell line is derived from a metastasis to lymph node of human cervix from a patient diagnosed with squameous cell carcinoma of the cervix. The Z138 cell line is a mature B-cell acute lymphoblastic leukemia cell line derived from a patient with chronic lumphocytic leukemia. 3T3 cells are standard fibroblast cells; they were originally isolated from Swiss mouse embryo tissue.

3T3 cells = assay: MTT cell proliferation assay, 3T3 cells; type: cell-based; conditions: NIH3T3; 3T3 cells (standard fibroblast cells, Swiss mouse embryo); approximately 64-72 hours incubation
Experimental: as §1, §2

Z138 cells = assay: MTT cell proliferation assay, Z138 cells; type: cell-based, human; conditions: Homo sapiens, Z-138; Z138 cells (mature B-cell acute lymphoblastic leukemia cell line); approximately 64-72 hours incubation
Experimental: as §1, §2

SMILES | IC50 (MS751 cells) [µM] | IC50 (3T3 cells) [µM] | IC50 (Z138 cells) [µM]
O=C(NCc1cc2cc(-c3ccc(C(=O)N4CCC(F)(F)CC4)cc3)cc(-c3ccc(F)cc3)c2o1)N1Cc2ccncc2C1 [Compound 102, N-((5-(4-(4,4-difluoropiperidine-1-carbonyl)phenyl)-7-(4-fluorophenyl)benzofuran-2-yl)methyl)-1H-pyrrolo[3,4-c]pyridine-2(3H)-carboxamide] | < 0.1 | 0.1 to 5 | < 0.1
O=C(NCc1cc2cc(-c3ccc(C(=O)N4CCC(F)(F)CC4)cc3)cc(-c3ccc(F)cc3F)c2o1)N1Cc2ccncc2C1 [Compound 108, N-((7-(2,4-difluorophenyl)-5-(4-(4,4-difluoropiperidine-1-carbonyl)phenyl)benzofuran-2-yl)methyl)-1H-pyrrolo[3,4-c]pyridine-2(3H)-carboxamide] | < 0.1 | > 10 | < 0.1
Nc1ccc(C2CN(C(=O)NCc3cc4cc(-c5ccc(C(=O)N6CCC(F)(F)CC6)cc5)cc(-c5ccc(F)cc5)c4o3)C2)cn1 [Compound 103, 3-(6-aminopyridin-3-yl)-N-((5-(4-(4,4-difluoropiperidine-1-carbonyl)phenyl)-7-(4-fluorophenyl)benzofuran-2-yl)methyl)azetidine-1-carboxamide] | 0.1 to 5 | 0.1 to 5 | < 0.1
O=C(NCCOc1ccc(-c2ccc(C(=O)N3CCC(F)(F)CC3)cc2)cc1-c1ccc(F)cc1)N1Cc2ccncc2C1 [Compound 121, N-(2-((4-(4,4-difluoropiperidine-1-carbonyl)-4″-fluoro-[1,1′:3′,1″-terphenyl]-4′-yl)oxy)ethyl)-1,3-dihydro-2H-pyrrolo[3,4-c]pyridine-2-carboxamide] | < 0.1 | > 10 | < 0.1
Nc1ccc(CNC(=O)NCc2cc3cc(-c4ccc(C(=O)N5CCC(F)(F)CC5)cc4)cc(-c4ccc(F)cc4)c3o2)cn1 [Compound 100, 1-((6-aminopyridin-3-yl)methyl)-3-((5-(4-(4,4-difluoropiperidine-1-carbonyl)phenyl)-7-(4-fluorophenyl)benzofuran-2-yl)methyl)urea] | < 0.1 | 0.1 to 5 | < 0.1
O=C(NCCc1cc2cc(-c3ccc(C(=O)N4CCC(F)(F)CC4)cc3)cc(-c3ccc(F)cc3)c2o1)N1Cc2ccncc2C1 [Compound 107, N-(2-(5-(4-(4,4-difluoropiperidine-1-carbonyl)phenyl)-7-(4-fluorophenyl)benzofuran-2-yl)ethyl)-1H-pyrrolo[3,4-c]pyridine-2(3H)-carboxamide] | < 0.1 | 0.1 to 5 | < 0.1
Nc1ccc(NC(=O)NCc2cc3cc(-c4ccc(C(=O)N5CCC(F)(F)CC5)cc4)cc(-c4ccc(F)cc4)c3o2)cn1 [Compound 101, 1-(6-aminopyridin-3-yl)-3-((5-(4-(4,4-difluoropiperidine-1-carbonyl)phenyl)-7-(4-fluorophenyl)benzofuran-2-yl)methyl)urea] | 0.1 to 5 | > 10 | 0.1 to 5
N#C/N=C(\NCc1cc2cc(-c3ccc(C(=O)N4CCC(F)(F)CC4)cc3)cc(-c3ccc(F)cc3)c2o1)Nc1ccc(N)nc1 [Compound 118, (E)-1-(6-aminopyridin-3-yl)-2-cyano-3-((5-(4-(4,4-difluoropiperidine-1-carbonyl)phenyl)-7-(4-fluorophenyl)benzofuran-2-yl)methyl)guanidine] | > 10 | > 10 | > 10
